Reference: paper PMC11024869, “The activity of antimicrobial peptoids against multidrug-resistant ocular pathogens” (Contact lens & anterior eye : the journal of the British …, 2024)
Converted amounts (≈) assume the structure as drawn. Non-standard residues stand in square brackets, D forms with d. Residues, ends and D or L forms follow the SMILES beside them. Nspe = C[C@H](NCC(=O)O)c1ccccc1; Nlys = NCCCCNCC(=O)O

How the values were obtained:
Assay type in all cases: cell-based
[1] = test system: Candida albicans ATCC 10231; experiment: MIC/MBC (fungicidal) micro broth dilution; conditions: ATCC 10231 (yeast); MHB, 24 h 37 °C; ≥99.99 % reduction in CFUs
Description: (§3) The S. pneumoniae strains used were SP04, SP06 and SP07 [46] and Streptococcus gallolyticus SV06 (all isolated from eyes of contact lens wearers during adverse events); P. aeruginosa PAO1 (which was originally isolated from a wound, and is an invasive strain containing the gene exoS) as well as isolates from microbial keratitis, PA 235 (invasive strain containing exoS), PA216 (a cytotoxic strain containing exoU), PA219 (cytotoxic strain containing exoU), PA 233 (cytotoxic strain containing exoU), with various susceptibilities to antibiotics were also used [14]. C. albicans ATCC 10231, a yeast, isolated from case of a human bronchomycosis, was also evaluated.
(§4) The peptoids’ minimum inhibitory and bactericidal concentrations (MIC and MBC) were determined using micro broth dilution methods as previously described with slight modifications, [26, 39, 49, 50], and without using acetic acid and bovine serum albumin [39]. Briefly, bacteria or yeast were suspended in Muller Hinton broth (MHB, Oxoid, Thermo Fisher Scientific, Thebarton, SA, Australia) at 0.1 OD660nm, which was equivalent to 1x10^8 colony forming units (CFU) mL^−1. This suspension was further diluted to achieve 5x10^6 CFU mL^−1. The peptoids were diluted in MHB from 250 to 0.24 μg mL^−1 in 96-well polystyrene microplates (COSTAR, Corning Incorporated, New York, NY, USA) [39]. […] This was followed by addition of 100 μL of each microbial suspensions. Wells with only bacteria or the yeast were treated as a negative control, and wells with only MHB medium were treated as a blank. The plates were incubated at 37 °C with shaking at 120 rpm for 24 h. After incubation, the media in each well was serially diluted in phosphate buffered solution and then inoculated onto tryptone soya agar (Oxoid) plates for bacteria, or Sabouraud’s dextrose agar for the yeast, and incubated at 37 °C for 18 hrs. Post incubation, the number of CFUs on the agar plates was counted.

[2] = test system: Pseudomonas aeruginosa PA233; conditions: PA233, MHB, 24 h 37 °C
Description: All S. aureus strains used were isolated from cases of microbial keratitis (Table 1) with various susceptibilities to antibiotics. The S. pneumoniae strains used were SP04, SP06 and SP07 [46] and Streptococcus gallolyticus SV06 (all isolated from eyes of contact lens wearers during adverse events); P. aeruginosa PAO1 (which was originally isolated from a wound, and is an invasive strain containing the gene exoS) as well as isolates from microbial keratitis, PA 235 (invasive strain containing exoS), PA216 (a cytotoxic strain containing exoU), PA219 (cytotoxic strain containing exoU), PA 233 (cytotoxic strain containing exoU), with various susceptibilities to antibiotics were also used. C. albicans ATCC 10231, a yeast, isolated from case of a human bronchomycosis, was also evaluated.
The peptoids’ minimum inhibitory and bactericidal concentrations (MIC and MBC) were determined using micro broth dilution methods as previously described with slight modifications, [26, 39, 49, 50], and without using acetic acid and bovine serum albumin [39]. Briefly, bacteria or yeast were suspended in Muller Hinton broth (MHB, Oxoid, Thermo Fisher Scientific, Thebarton, SA, Australia) at 0.1 OD660nm, which was equivalent to 1x10^8 colony forming units (CFU) mL^−1. This suspension was further diluted to achieve 5x10^6 CFU mL^−1. The peptoids were diluted in MHB from 250 to 0.24 μg mL^−1 in 96-well polystyrene microplates (COSTAR, Corning Incorporated, New York, NY, USA). This range was selected to cover the range of MIC values previously reported for ESKAPE pathogens. This was followed by addition of 100 μL of each microbial suspensions. Wells with only bacteria or the yeast were treated as a negative control, and wells with only MHB medium were treated as a blank. The plates were incubated at 37 °C with shaking at 120 rpm for 24 h. After incubation, the media in each well was serially diluted in phosphate buffered solution and then inoculated onto tryptone soya agar (Oxoid) plates for bacteria, or Sabouraud’s dextrose agar for the yeast, and incubated at 37 °C for 18 hrs. Post incubation, the number of CFUs on the agar plates was counted.

[3] = test system: Streptococcus pneumoniae SP06; conditions: SP06, MHB, 24 h 37 °C
Description: as §3, §4

[4] = test system: Staphylococcus aureus SA34; conditions: SA34, MHB, 24 h 37 °C
Description: as §3, §4

[5] = test system: human erythrocytes; experiment: In vitro assay for hemolysis, human blood
Description: (§1) Hemolysis caused by the peptoids was measured using 18 to 20 mL of a horse or human blood collected in EDTA-coated tubes which has been centrifuged at 500×g for 5 min. The supernatant was discarded and the pellet containing the cells were resuspended in PBS to a final volume of 20 mL. This step was repeated five times. After the final wash, the pellet was resuspended in PBS at the ratio of 1:10 (1 mL red blood cell: 9 mL PBS) to yield a final red blood cell (RBC) concentration of approximately 5 × 10^8 cells mL^−1. The concentration of RBCs was confirmed using a hemocytometer. The peptoids (stock concentration 2 mM) were diluted sequentially (two-fold dilutions) in PBS to final concentrations of […]. All the dilutions were subsequently mixed with the RBC suspension at the ratio of 1:1. MilliQ water was used as a positive control and PBS was used as a negative control in this assay. All samples were incubated at 37 °C for 3 h. Following incubation, the tubes were centrifuged at 500 x g for five mins, the supernatants were collected, transferred to wells in a 96 well plate and their optical density was measured at 540 nm. The percentage of hemolysis was calculated by dividing the absorbance of the test sample by the absorbance of the positive control, and multiplying by 100. Data are presented as the hemolysis caused by each dilution of peptoid, and as the concentration of peptoid that caused 10 % or 50 % lysis of red blood cells.
(§2) The geometric mean is the nth root of the multiplied numbers, where n is the total number of data values. A similar formula was used to calculate the selectivity ratio, but by using the concentration of peptoid that caused 10 % hemolysis.

[6] = test system: Streptococcus pneumoniae SP04; conditions: SP04, MHB, 24 h 37 °C
Description: as §3, §4

[7] = test system: Streptococcus gallolyticus SG04; conditions: SG04, MHB, 24 h 37 °C
Description: as §3, §4

[8] = test system: Pseudomonas aeruginosa PAO1; conditions: PAO1, MHB
Description: as §3, §4

[9] = test system: Staphylococcus aureus SA113; conditions: SA113, MHB, 24 h 37 °C
Description: as §3, §4

[10] = test system: Streptococcus pneumoniae SP07; conditions: SP07, MHB, 24 h 37 °C
Description: as §3, §4

[11] = test system: viridans group streptococcus SV06; conditions: SV06, MHB, 24 h 37 °C
Description: as §3, §4

[12] = test system: Pseudomonas aeruginosa PA235; conditions: PA235; MHB, 24 h 37 °C; ≥99.99 % reduction in CFUs
Description: as §3, §4

[13] = test system: Staphylococcus aureus SA114; conditions: SA114, MHB, 24 h 37 °C
Description: as §3, §4

[14] = test system: Pseudomonas aeruginosa PA216; conditions: PA216, MHB, 24 h 37 °C
Description: as §3, §4

[15] = test system: horse erythrocytes; experiment: In vitro assay for hemolysis, horse blood
Description: as §1, §2

[16] = test system: Staphylococcus aureus SA65; conditions: SA65, MHB, 24 h 37 °C
Description: as §3, §4

[17] = test system: Staphylococcus aureus SA117; conditions: SA117, MHB, 24 h 37 °C
Description: as §3, §4

[18] = test system: Pseudomonas aeruginosa PA219; conditions: PA219, MHB, 24 h 37 °C
Description: as §3, §4

C[C@@H](c1ccccc1)N(CC(N)=O)C(=O)CN(C(=O)CN(CCCCN)C(=O)CN(C(=O)CN(C(=O)CN(CCCCN)C(=O)CN(C(=O)CN(C(=O)CN(CCCCN)C(=O)CN(C(=O)CN(C(=O)CNCCCCN)[C@@H](C)c1ccccc1)[C@@H](C)c1ccccc1)[C@@H](C)c1ccccc1)[C@@H](C)c1ccccc1)[C@@H](C)c1ccccc1)[C@@H](C)c1ccccc1)[C@@H](C)c1ccccc1 [TM1] (H-[Nlys][Nspe][Nspe][Nlys][Nspe][Nspe][Nlys][Nspe][Nspe][Nlys][Nspe][Nspe]-NH2)
MBC (minimum fungicidal concentration) [1]: 3.9(2.2)/3.9(2.2) μg mL^−1 | MIC ([2]; ≥90 % reduction in CFUs): 15(8.6)/15(8.6) μg mL^−1 | MBC ([2]; ≥99.99 % reduction in CFUs): 15(8.6)/15(8.6) μg mL^−1 | MIC ([3]; ≥90 % reduction in CFUs): 3.9 µg/mL (≈ 2.14 µM) | MBC ([3]; ≥99.99 % reduction in CFUs): 7.8 µg/mL (≈ 4.29 µM) | MIC ([4]; ≥90 % reduction in CFUs): 7.8 µg/mL (≈ 4.29 µM) | MBC ([4]; ≥99.99 % reduction in CFUs): 15 µg/mL (≈ 8.24 µM) | Human HC10 ([5]; concentration causing 10 % lysis of human red blood cells, PBS, 3 h 37 °C, OD 540 nm): 8 µM | Human HC50 ([5]; concentration causing 50 % lysis of human red blood cells, PBS, 3 h 37 °C, OD 540 nm): 49 µM | SR human blood (ratio HC10 to geometric mean MIC) ([5]; selectivity ratio): 2 | TI human blood (ratio HC50 to geometric mean MIC) ([5]; therapeutic index): 12 | MIC ([6]; ≥90 % reduction in CFUs): 1.9(1.1)/1.9(1.1) μg mL^−1 | MBC ([6]; ≥99.99 % reduction in CFUs): 1.9(1.1)/1.9(1.1) μg mL^−1 | MIC ([7]; ≥90 % reduction in CFUs): 3.9 µg/mL (≈ 2.14 µM) | MBC ([7]; ≥99.99 % reduction in CFUs): 7.8 µg/mL (≈ 4.29 µM) | MIC ([8]; 5x10^6 CFU mL^−1, 24 h 37 °C, ≥90 % reduction in CFUs): 7.8 µg/mL (≈ 4.29 µM) | MBC ([8]; 24 h 37 °C, ≥99.99 % reduction in CFUs): 15 µg/mL (≈ 8.24 µM) | MIC ([9]; ≥90 % reduction in CFUs): 3.9 µg/mL (≈ 2.14 µM) | MBC ([9]; ≥99.99 % reduction in CFUs): 7.8 µg/mL (≈ 4.29 µM) | MIC ([10]; ≥90 % reduction in CFUs): 15(8.6)/15(8.6) μg mL^−1 | MBC ([10]; ≥99.99 % reduction in CFUs): 15(8.6)/15(8.6) μg mL^−1 | MIC ([11]; ≥90 % reduction in CFUs): 3.9 µg/mL (≈ 2.14 µM) | MBC ([11]; ≥99.99 % reduction in CFUs): 7.8 µg/mL (≈ 4.29 µM) | MBC [12]: 31(17)/31(17) μg mL^−1 | MIC ([13]; ≥90 % reduction in CFUs): 7.8(4.3)/7.8(4.3) μg mL^−1 | MBC ([13]; ≥99.99 % reduction in CFUs): 7.8(4.3)/7.8(4.3) μg mL^−1 | MIC ([14]; ≥90 % reduction in CFUs): 15 µg/mL (≈ 8.24 µM) | MBC ([14]; ≥99.99 % reduction in CFUs): 31 µg/mL (≈ 17 µM) | Horse HC10 ([15]; concentration causing 10 % lysis of horse red blood cells, PBS, 3 h 37 °C, OD 540 nm): 4 µM | Horse HC50 ([15]; concentration causing 50 % lysis of horse red blood cells, PBS, 3 h 37 °C, OD 540 nm): 45 µM | SR horse blood (ratio HC10 to geometric mean MIC) ([15]; selectivity ratio): 1 | TI horse blood (ratio HC50 to geometric mean MIC) ([15]; therapeutic index): 11 | MIC ([16]; ≥90 % reduction in CFUs): 3.9(2.2)/3.9(2.2) μg mL^−1 | MBC ([16]; ≥99.99 % reduction in CFUs): 3.9(2.2)/3.9(2.2) μg mL^−1 | MIC ([17]; ≥90 % reduction in CFUs): 7.8 µg/mL (≈ 4.29 µM) | MBC ([17]; ≥99.99 % reduction in CFUs): 15 µg/mL (≈ 8.24 µM) | MIC ([18]; ≥90 % reduction in CFUs): 15 µg/mL (≈ 8.24 µM) | MBC ([18]; ≥99.99 % reduction in CFUs): 31 µg/mL (≈ 17 µM)
